Our source for the pIC50 values is the supplement of paper PMC12076712.

What all share (test): pIC50, kinobeads binding competition
In one assay the target is ACVR2B (UniProt Q13705). The method in brief:
(§1)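 Either living Jurkat cells (60 min at 37 °C, then lysis) or lysates (60 min at 4 °C) were treated with nine compound concentrations from a top of 30 μM, in 1:4 steps for cells and 1:5 steps for lysates. The lysates were from Jurkat cells or a 1:1:1:1 mix of HEK293, K-562, HepG2 and placenta. Kinobeads-bound proteins were digested and quantified by TMT10 LC-MS/MS. pIC50 was calculated by logistic dose-response fitting (R drc package) of fold changes relative to vehicle, in biological duplicates.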

The next assay concerns the target CDK6 (UniProt Q00534). An outline of the steps: as §1
For another assay, the target named is T1, EPHB4 (UniProt P54760).
T1 sequence (whole entry): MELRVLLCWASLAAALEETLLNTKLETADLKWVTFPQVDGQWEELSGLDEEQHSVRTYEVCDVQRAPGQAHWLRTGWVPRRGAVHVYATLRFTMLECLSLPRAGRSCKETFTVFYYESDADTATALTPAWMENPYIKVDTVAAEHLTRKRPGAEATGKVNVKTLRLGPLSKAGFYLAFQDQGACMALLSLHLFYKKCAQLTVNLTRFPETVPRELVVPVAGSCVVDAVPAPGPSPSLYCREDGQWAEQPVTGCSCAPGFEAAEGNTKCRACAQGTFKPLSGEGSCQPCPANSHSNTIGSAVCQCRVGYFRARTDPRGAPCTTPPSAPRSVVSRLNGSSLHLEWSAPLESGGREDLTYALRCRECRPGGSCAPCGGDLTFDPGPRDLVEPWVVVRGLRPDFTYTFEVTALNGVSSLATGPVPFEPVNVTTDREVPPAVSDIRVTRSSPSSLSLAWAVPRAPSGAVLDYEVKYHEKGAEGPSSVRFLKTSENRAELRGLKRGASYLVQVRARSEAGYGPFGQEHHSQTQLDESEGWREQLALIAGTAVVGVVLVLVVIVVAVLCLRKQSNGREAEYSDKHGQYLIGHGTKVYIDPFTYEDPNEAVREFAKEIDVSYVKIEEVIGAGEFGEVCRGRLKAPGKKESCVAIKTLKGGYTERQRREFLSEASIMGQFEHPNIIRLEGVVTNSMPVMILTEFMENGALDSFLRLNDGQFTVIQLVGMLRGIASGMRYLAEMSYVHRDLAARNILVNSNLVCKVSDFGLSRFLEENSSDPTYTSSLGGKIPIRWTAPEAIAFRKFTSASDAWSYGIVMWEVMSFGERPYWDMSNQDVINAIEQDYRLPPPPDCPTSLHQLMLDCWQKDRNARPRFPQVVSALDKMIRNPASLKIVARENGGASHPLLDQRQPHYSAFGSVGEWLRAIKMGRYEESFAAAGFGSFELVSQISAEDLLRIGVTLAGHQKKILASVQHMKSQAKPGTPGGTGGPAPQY
The conditions noted are these: cell material: Lysate mix. The method in brief:
as §1

A further assay deals with T2, MAP3K15 (UniProt Q6ZN16).
T2 sequence (whole entry): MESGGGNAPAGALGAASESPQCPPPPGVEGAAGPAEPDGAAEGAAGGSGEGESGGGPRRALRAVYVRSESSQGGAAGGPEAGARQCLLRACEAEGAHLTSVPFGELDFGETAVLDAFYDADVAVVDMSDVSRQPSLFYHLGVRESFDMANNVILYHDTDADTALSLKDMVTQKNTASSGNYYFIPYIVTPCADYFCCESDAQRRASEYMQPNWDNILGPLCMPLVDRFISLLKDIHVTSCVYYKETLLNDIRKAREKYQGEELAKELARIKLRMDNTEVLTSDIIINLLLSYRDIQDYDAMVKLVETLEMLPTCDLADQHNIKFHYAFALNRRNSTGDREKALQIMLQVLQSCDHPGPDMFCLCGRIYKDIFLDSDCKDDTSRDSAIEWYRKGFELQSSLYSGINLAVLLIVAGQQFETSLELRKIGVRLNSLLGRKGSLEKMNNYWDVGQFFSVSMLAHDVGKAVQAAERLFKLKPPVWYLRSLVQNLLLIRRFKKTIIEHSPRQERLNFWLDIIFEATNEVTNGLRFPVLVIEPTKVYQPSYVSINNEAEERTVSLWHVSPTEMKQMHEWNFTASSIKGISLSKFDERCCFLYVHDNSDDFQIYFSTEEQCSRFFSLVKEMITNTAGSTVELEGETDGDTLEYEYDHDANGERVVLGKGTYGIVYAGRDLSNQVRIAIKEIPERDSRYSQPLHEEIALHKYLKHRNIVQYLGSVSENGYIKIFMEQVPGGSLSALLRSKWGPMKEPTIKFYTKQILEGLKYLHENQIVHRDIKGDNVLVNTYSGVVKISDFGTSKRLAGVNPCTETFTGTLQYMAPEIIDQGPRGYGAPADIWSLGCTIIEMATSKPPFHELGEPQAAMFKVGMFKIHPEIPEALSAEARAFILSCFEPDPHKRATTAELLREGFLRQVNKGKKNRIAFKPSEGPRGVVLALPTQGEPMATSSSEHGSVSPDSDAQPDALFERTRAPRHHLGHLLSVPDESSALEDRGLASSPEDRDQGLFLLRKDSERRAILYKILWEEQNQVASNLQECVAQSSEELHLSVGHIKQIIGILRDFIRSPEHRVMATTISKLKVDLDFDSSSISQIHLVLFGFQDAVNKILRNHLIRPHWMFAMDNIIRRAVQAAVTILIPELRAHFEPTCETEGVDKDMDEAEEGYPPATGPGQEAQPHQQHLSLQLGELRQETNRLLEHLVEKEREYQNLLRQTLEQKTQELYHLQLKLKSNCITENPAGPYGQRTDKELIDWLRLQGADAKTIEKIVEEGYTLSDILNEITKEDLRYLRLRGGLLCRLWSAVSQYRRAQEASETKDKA
The conditions noted are these: cell material: Lysate mix. The method in brief:
as §1

The target of the next assay is T3, UniProt P51955.
T3 sequence (whole entry): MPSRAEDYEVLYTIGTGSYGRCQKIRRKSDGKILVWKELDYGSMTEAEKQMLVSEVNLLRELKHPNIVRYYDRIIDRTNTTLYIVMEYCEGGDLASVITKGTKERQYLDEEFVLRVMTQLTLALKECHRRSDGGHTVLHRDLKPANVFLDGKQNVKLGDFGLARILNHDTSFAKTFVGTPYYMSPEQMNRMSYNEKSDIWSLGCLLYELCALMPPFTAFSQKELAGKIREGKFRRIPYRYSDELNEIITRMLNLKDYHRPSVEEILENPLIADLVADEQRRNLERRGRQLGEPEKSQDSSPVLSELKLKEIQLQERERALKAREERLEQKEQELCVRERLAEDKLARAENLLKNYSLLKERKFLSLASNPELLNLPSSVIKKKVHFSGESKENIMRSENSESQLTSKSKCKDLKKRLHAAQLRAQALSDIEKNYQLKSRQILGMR
An outline of the steps: as §1

ACVR2B, sequence (Q13705 whole entry): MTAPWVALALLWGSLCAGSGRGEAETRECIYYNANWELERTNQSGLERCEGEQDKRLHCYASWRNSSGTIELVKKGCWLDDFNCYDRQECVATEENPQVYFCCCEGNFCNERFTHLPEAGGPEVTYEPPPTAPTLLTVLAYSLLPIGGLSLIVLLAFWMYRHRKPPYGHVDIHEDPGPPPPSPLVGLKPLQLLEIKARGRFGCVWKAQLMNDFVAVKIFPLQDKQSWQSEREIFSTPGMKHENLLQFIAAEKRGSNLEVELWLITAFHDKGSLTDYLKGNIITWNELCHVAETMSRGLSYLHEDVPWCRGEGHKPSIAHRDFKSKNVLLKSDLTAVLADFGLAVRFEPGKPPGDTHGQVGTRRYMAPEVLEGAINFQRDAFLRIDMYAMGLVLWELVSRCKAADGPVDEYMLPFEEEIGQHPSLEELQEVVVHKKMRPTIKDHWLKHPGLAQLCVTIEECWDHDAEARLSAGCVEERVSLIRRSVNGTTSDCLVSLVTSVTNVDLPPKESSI
CDK6, sequence (Q00534 whole entry): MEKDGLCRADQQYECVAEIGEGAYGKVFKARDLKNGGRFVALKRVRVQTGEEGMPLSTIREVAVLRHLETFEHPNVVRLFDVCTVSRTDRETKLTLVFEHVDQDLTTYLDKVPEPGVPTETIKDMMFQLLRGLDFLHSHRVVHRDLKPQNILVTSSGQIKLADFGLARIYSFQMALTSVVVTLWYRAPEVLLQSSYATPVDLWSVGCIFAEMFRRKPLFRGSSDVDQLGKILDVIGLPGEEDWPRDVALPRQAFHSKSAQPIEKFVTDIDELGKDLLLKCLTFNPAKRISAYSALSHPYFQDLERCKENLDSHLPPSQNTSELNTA

As for `C#CCNC(=O)c1cc(Nc2cc(C)[nH]n2)nc(N2CCN(Cc3ccc(S(=O)(=O)F)cc3)CC2)n1`, the pIC50 is under 4.52 at ACVR2B (cell material: Lysate mix); 5.06 on CDK6 (cell material: Lysate mix); under 4.52 on EPHB4; 4.92 on MAP3K15; 4.81 on UniProt P51955 (cell material: Lysate mix).
For the molecule `O=C(NCCNC(=O)c1cc(Nc2cc(C3CC3)[nH]n2)nc(N2CCN(Cc3ccc(S(=O)(=O)F)cc3)CC2)n1)OC1CC/C=C/CCC1` (stereo unspecified), the pIC50 on ACVR2B (cell material: Jurkat cells) is under 4.52; at ACVR2B (cell material: Jurkat lysate) it was under 4.52; on ACVR2B (cell material: Lysate mix), under 4.52; on CDK6 (cell material: Jurkat cells), 6.38; at CDK6 (cell material: Jurkat lysate), under 4.52; at CDK6 (cell material: Lysate mix), under 4.52. Further, the pIC50 is under 4.52 on EPHB4; under 4.52 at MAP3K15; 6.24 on UniProt P51955 (cell material: Jurkat cells); under 4.52 on UniProt P51955 (cell material: Jurkat lysate); under 4.52 at UniProt P51955 (cell material: Lysate mix).
As to `CCNC(=O)c1cc(Nc2cc(C3CC3)[nH]n2)nc(N2CCN(Cc3ccc(S(=O)(=O)F)cc3)CC2)n1`, the pIC50 at ACVR2B (cell material: Lysate mix) is under 4.52; on CDK6 (cell material: Lysate mix) it was 5.52; at EPHB4, under 4.52; at MAP3K15, under 4.52; at UniProt P51955 (cell material: Lysate mix), 5.69.
For the molecule `Cc1cc(Nc2cc(C(=O)NCCNC(=O)OC3CC/C=C/CCC3)nc(N3CCN(Cc4ccc(S(=O)(=O)F)cc4)CC3)n2)n[nH]1` (stereo unspecified), the pIC50 on ACVR2B (cell material: Lysate mix), at CDK6 (cell material: Lysate mix), on EPHB4, at MAP3K15 and on UniProt P51955 (cell material: Lysate mix) was under 4.52 each time.
Turning to `CCNC(=O)c1cc(Nc2cc(C)[nH]n2)nc(N2CCN(Cc3ccc(S(=O)(=O)F)cc3)CC2)n1`, the pIC50 is under 4.52 at ACVR2B (cell material: Lysate mix); 5.22 at CDK6 (cell material: Lysate mix); under 4.52 at EPHB4; 4.94 on MAP3K15; 4.67 on UniProt P51955 (cell material: Lysate mix).
With `C#CCNC(=O)c1cc(Nc2cc(C3CC3)[nH]n2)nc(N2CCN(Cc3ccc(S(=O)(=O)F)cc3)CC2)n1`, the pIC50 on ACVR2B (cell material: Jurkat lysate) was under 4.52; on ACVR2B (cell material: Lysate mix), under 4.52; on CDK6 (cell material: Jurkat cells), 6.84; at CDK6 (cell material: Jurkat lysate), 5.43; on CDK6 (cell material: Lysate mix), 5.58; on EPHB4, under 4.52. Moreover, the pIC50 on MAP3K15 is under 4.52; on UniProt P51955 (cell material: Jurkat cells), 6.69; at UniProt P51955 (cell material: Jurkat lysate) it was 5.41; at UniProt P51955 (cell material: Lysate mix) it was 5.87.

Broadly, the pIC50 is −log10 of the IC50, conventionally taken in molar units. Low readings indicate a high IC50, high ones a low IC50.
